Results from PubChem BioAssay AID449764 (Southern Research Specialized Biocontainment Screening …, 2010).

Test system: Mycobacterium tuberculosis H37Rv growth inhibition, no glycerol
Assay: Confirmatory growth inhibition assay, Mycobacterium tuberculosis H37Rv, absence of glycerol (AID 449764);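 note: growth read after 7 days of incubation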
Settings: for IC90: measured here: IC90 growth inhibition

Question: For `COc1ccc(NC(=O)CSC2CCCCC2)cc1`, which IC50 is on record?
Answer: 76.3 µM

Question: What about the IC90 of the same compound?
Answer: > 100 µM

Question: For `COc1ccc2c3n(nc2c1)CCN=C3c1cc(Cl)c(N)c(Cl)c1`, which IC50 is on record?
Answer: 94.1 µM

Question: What about the IC90 of the same compound?
Answer: 97.7 µM

Question: Which results are given for `CC(C)NC(=O)c1onc(CSc2ccc(F)c(F)c2)c1C(=O)O`?
Answer: IC50: 17.8 µM; IC90: 22.9 µM

Question: `Cc1cc(C)c(C(N)=O)c(SCC(=O)c2ccc(Cl)cc2)n1` was tested. Which IC50 did it give?
Answer: 75.3 µM

Question: What about the IC90 of the same compound?
Answer: > 100 µM

Question: How did the IC50 turn out when `COc1ccc(SC[C@H](Cc2ccccc2)N2CCN(CCc3ccccc3)CCC2=O)cc1` was run?
Answer: 40.6 µM

Question: And the IC90?
Answer: 51.4 µM

Question: Which IC50 does the source give for `O=[N+]([O-])c1ccc(C2CC(c3ccccc3)=Nc3ccccc3S2)cc1` (stereo not given) here?
Answer: 6.28 µM

Question: What about the IC90 of the same compound?
Answer: 7.31 µM

Question: With `C(=N\NC1=Nc2cccc3cccc1c23)/c1cccnc1` as the compound, how does the IC50 read?
Answer: 92.8 µM

Question: And the IC90?
Answer: > 100 µM

Question: Which results are given for `CC1(C)c2cc(Cl)ccc2-n2c1cc(O)c(-c1ccccc1)c2=O`?
Answer: IC50: 8.61 µM; IC90: 18.1 µM

Question: With `C[n+]1c(-c2ccccc2)c2cc(N)ccc2c2ccc(N)cc21` as the compound, how does the IC50 read?
Answer: 16.4 µM

Question: And the IC90?
Answer: 20.9 µM

Question: Which results are given for `COc1ccc(OC)c(CN2CCN(C(=O)CNC(=O)c3ccc(C(C)(C)C)cc3)CC2)c1`?
Answer: IC50: 63.8 µM; IC90: 91.1 µM

Question: Which IC50 does the source give for `Nc1c2c(nc3sc4c(c13)CCCCC4)CCCC2` here?
Answer: 3.12 µM

Question: And the IC90?
Answer: 8.41 µM

Question: With `CN1CCc2cc3c(c4c2C1Cc1ccccc1-4)OCO3` (stereo not given) as the compound, how does the IC50 read?
Answer: 2.35 µM

Question: What about the IC90 of the same compound?
Answer: 3.03 µM

Question: For `O=C(c1cc([N+](=O)[O-])cc([N+](=O)[O-])c1)N(Cc1nnc(-c2ccccc2Cl)o1)C1CC1`, which IC50 is on record?
Answer: 15.8 µM

Question: What about the IC90 of the same compound?
Answer: 23.5 µM

Question: What does the source list for `CCCc1cc(-c2nc(-c3ccc(Br)cc3)cs2)ccn1`?
Answer: IC50: 16.4 µM; IC90: 24.6 µM

Question: What does the source list for `O=C(OCC(=O)N1CCN(c2ccccc2)CC1)c1cnc(Cl)c(Cl)c1`?
Answer: IC50: 27 µM; IC90: 58.1 µM

Question: Which IC50 does the source give for `CCOC(=O)c1cc(-c2ccccc2)nc2c1c(C)nn2-c1ccccn1` here?
Answer: 19.3 µM

Question: What about the IC90 of the same compound?
Answer: 44.3 µM

Question: Which IC50 does the source give for `O=[N+]([O-])c1cc([N+](=O)[O-])c2c(=Nc3ccccc3)n(-c3ccccc3)n(O)c2c1` here?
Answer: 8.32 µM

Question: And the IC90?
Answer: 10.3 µM

Question: What does the source list for `On1onc2c3cc(-c4ccccc4)nc3ccc21`?
Answer: IC50: < 0.2 µM; IC90: < 0.2 µM

Question: How did the IC90 turn out when `Cc1nnc(SCc2ccccc2Cl)n(N)c1=O` was run?
Answer: > 100 µM

Question: What does the source list for `CCN1CCN(CCCNC(=O)c2ccc(/C=C3/Oc4ccccc4N(Cc4cccc(C)c4)C3=O)cc2)CC1`?
Answer: IC50: 45.2 µM; IC90: 48.1 µM

Question: For `O=C(CSc1cccc[n+]1[O-])c1cccs1`, which IC50 is on record?
Answer: 34.9 µM

Question: And the IC90?
Answer: 42.2 µM

Question: With `CSC(=S)N/N=C/c1ccccc1` as the compound, how does the IC50 read?
Answer: 39.8 µM

Question: What about the IC90 of the same compound?
Answer: 54.1 µM

Question: Which results are given for `CC1CC2=C(CC1/C=N/NC(N)=S)C(C)(C)CCC2` (stereo not given)?
Answer: IC50: 18.3 µM; IC90: 26.8 µM

Question: What does the source list for `Cc1ncsc1CCOC(=O)c1ccc([N+](=O)[O-])cc1`?
Answer: IC50: 20.1 µM; IC90: 37.2 µM

Question: Which IC50 does the source give for `Cc1ccn2c(NC3CCCCC3)c(-c3cccc(-c4cccc(Cl)c4)c3)nc2c1` here?
Answer: 26.4 µM

Question: And the IC90?
Answer: 36.3 µM

Question: `O=C(Nc1ccc(N2CCN(C(=O)c3ccco3)CC2)cc1)C(c1ccccc1)c1ccccc1` was tested. Which IC50 did it give?
Answer: 24.1 µM

Question: What about the IC90 of the same compound?
Answer: 27.2 µM

Question: `CC(=O)OC1=Cc2c(ccc3ccc(=O)oc23)OC1(C)C` was tested. Which IC50 did it give?
Answer: 47.9 µM

Question: What about the IC90 of the same compound?
Answer: > 100 µM

Question: With `Nc1c2c(nc3ccn(Cc4ccccc4)c(=O)c13)CCC2` as the compound, how does the IC50 read?
Answer: 9.72 µM

Question: And the IC90?
Answer: 15.9 µM

Question: What does the source list for `O=C(c1cccc(-c2ccco2)c1)N1CCCC(N2CCN(c3ccc(F)cc3)CC2)C1` (stereo not given)?
Answer: IC50: 74.1 µM; IC90: 95 µM

Question: With `COc1cc(NC(=O)C/C(C)=N/NC(=O)c2ccccn2)c(OC)cc1Cl` as the compound, how does the IC50 read?
Answer: 5.83 µM

Question: What about the IC90 of the same compound?
Answer: 9.98 µM

Question: How did the IC50 turn out when `C=CCNc1oc(-c2ccc(-c3ccccc3)cc2)nc1C#N` was run?
Answer: 16.1 µM

Question: And the IC90?
Answer: 19.6 µM

Question: Which IC50 does the source give for `O=S(=O)(Nc1ccc2[nH]ncc2c1)c1ccccc1Cl` here?
Answer: 11.3 µM

Question: And the IC90?
Answer: 17.1 µM

Question: How did the IC50 turn out when `CC(OC(=O)c1cc(Cl)ccc1[N+](=O)[O-])C(=O)NC(C)c1ccc(F)cc1` (stereo not given) was run?
Answer: 27.6 µM

Question: What about the IC90 of the same compound?
Answer: > 100 µM

Question: How did the IC50 turn out when `CN(CCO)c1cc(Sc2nc3ccccc3s2)c2nonc2c1[N+](=O)[O-]` was run?
Answer: 74.4 µM

Question: And the IC90?
Answer: 95 µM

Question: With `CCOc1ccc(OCCSc2ccc(S(=O)(=O)N3CCN(C)CC3)cn2)cc1` as the compound, how does the IC50 read?
Answer: 25.5 µM

Question: What about the IC90 of the same compound?
Answer: 28.8 µM

Question: How did the IC50 turn out when `CNC(C)C#Cc1ccc2oc3cc(C)c(C)cc3c(=O)c2c1` (stereo not given) was run?
Answer: 16.4 µM

Question: And the IC90?
Answer: 35.5 µM

Question: For `CCOC(=O)c1c(C)n(-c2ccc(C)cc2)c2ccc(OCC(O)CNCC3CCCO3)cc12` (stereo not given), which IC50 is on record?
Answer: 22.8 µM

Question: And the IC90?
Answer: 25.7 µM

Question: Which IC50 does the source give for `NC1=NC2(CCC(c3ccccc3)CC2)n2c(nc3ccccc32)N1` (stereo not given) here?
Answer: 32.5 µM

Question: And the IC90?
Answer: 43.7 µM

Question: Which IC50 does the source give for `COC(=O)c1ccc(NC(=S)NC(=O)C2CCC2)cc1` here?
Answer: 43.6 µM

Question: And the IC90?
Answer: > 100 µM

Question: What does the source list for `Nc1c(N(CCC2=CCCCC2)C(=O)c2ccc([N+](=O)[O-])o2)c(=O)[nH]c(=O)n1Cc1ccccc1`?
Answer: IC50: 27.9 µM; IC90: 48.2 µM

Question: For `N#Cc1cccc2c1-c1ccccc1/C2=N/NC(N)=O`, which IC90 is on record?
Answer: > 100 µM

Question: With `CCOc1ccc(-c2[nH]ncc2-c2ccc(Cl)cc2)c(O)c1` as the compound, how does the IC50 read?
Answer: 44.8 µM

Question: What about the IC90 of the same compound?
Answer: 72.3 µM

Question: Which results are given for `CCOc1cc(/C=C2\COc3ccccc3C2=O)cc(Br)c1OCC(=O)N(C)C`?
Answer: IC50: 6.73 µM; IC90: 11.5 µM

Question: With `CCOC(=O)COc1cc(O)c2c(=O)cc(-c3ccccc3)oc2c1` as the compound, how does the IC50 read?
Answer: 1.38 µM

Question: What about the IC90 of the same compound?
Answer: 2.03 µM

Question: How did the IC50 turn out when `O=C(CCCCCNc1nc(=S)[nH]c2ccccc12)N1CCN(c2ccccn2)CC1` was run?
Answer: 90.2 µM

Question: What about the IC90 of the same compound?
Answer: > 100 µM

Question: Which results are given for `COc1cc(/C=C(\C#N)c2nc3c(s2)CC(C)CC3)ccc1O` (stereo not given)?
Answer: IC50: 45.5 µM; IC90: 51.4 µM

Question: Which IC50 does the source give for `CCC(C)c1ccc2oc(-c3ccc(NC(=O)c4ncn[nH]4)cc3)nc2c1` (stereo not given) here?
Answer: 8.12 µM

Question: And the IC90?
Answer: 33 µM

Question: For `CCCCCc1ccc(S(=O)(=O)NCCc2ccncc2)cc1`, which IC50 is on record?
Answer: 36.5 µM

Question: What about the IC90 of the same compound?
Answer: 47 µM

Question: Which IC50 does the source give for `Clc1ccc(-c2[nH]ncc2N=Nc2ccccc2)cc1` here?
Answer: 63.1 µM

Question: What about the IC90 of the same compound?
Answer: > 100 µM

Question: For `S=C(NN=C1CCN(Cc2ccccc2)CC1)NC1CCCCC1`, which IC50 is on record?
Answer: 43.6 µM

Question: And the IC90?
Answer: 47 µM

Question: `O=C(Nc1nc(-c2cc(Cl)sc2Cl)cs1)c1cccs1` was tested. Which IC50 did it give?
Answer: 67.7 µM

Question: What about the IC90 of the same compound?
Answer: > 100 µM

Question: What does the source list for `c1ccc(C2[C@H]3CN(CC4CCCCC4)[C@H](c4ccccc4)C34CC2(c2cccnc2)C4)cc1` (stereo not given in full)?
Answer: IC50: 34.2 µM; IC90: 45.1 µM

Question: Which results are given for `Oc1ccc(C[C@H]2CNCCN2CCCCC2CCCCC2)cc1`?
Answer: IC50: 40 µM; IC90: 55.3 µM

Question: Which results are given for `O=c1c2c(-c3ccccc3)csc2ncn1/N=C/c1ccc(O)c([N+](=O)[O-])c1`?
Answer: IC50: 37.1 µM; IC90: 59 µM

Question: For `CCN(CC)CCNC(=O)c1ccc(NC(=O)c2cn(-c3ccccc3)nc2-c2cccs2)cc1`, which IC50 is on record?
Answer: 24.4 µM

Question: And the IC90?
Answer: 27.6 µM

Question: How did the IC90 turn out when `COC(=O)[C@@H](NC(=O)O[C@@H]1C(=O)c2ccc(OC)cc2O[C@H]1c1cccc(C(F)(F)F)c1)C(C)C` was run?
Answer: > 100 µM

Question: `O=C(CCSc1ccccn1)c1ccccc1` was tested. Which IC50 did it give?
Answer: 24.6 µM

Question: What about the IC90 of the same compound?
Answer: 34.1 µM

Question: What does the source list for `Cc1ccc2c(c1)nnn2C1CCN(CC(=O)N2CCN(c3ccc(F)cc3)CC2)CC1`?
Answer: IC50: 36.8 µM; IC90: 54.7 µM

Question: For `COc1cc(OC)nc(-n2ncc(Br)c(Br)c2=O)n1`, which IC50 is on record?
Answer: 22.5 µM

Question: And the IC90?
Answer: 25.1 µM

Question: Which results are given for `COc1ccccc1/C=C/C(=O)Nc1ccc(S(=O)(=O)Nc2cc(C)on2)cc1`?
Answer: IC50: 28.5 µM; IC90: 57.1 µM

Question: How did the IC50 turn out when `Cc1cccc(NS(=O)(=O)c2ccc(C(=O)N3CCN(c4ccccc4O)CC3)cc2)c1C` was run?
Answer: 85.5 µM

Question: And the IC90?
Answer: > 100 µM

Question: `O=C(CCC(=O)OCc1ccc(C(=O)Oc2ccc(Cl)cc2)cc1)Nc1ccccc1` was tested. Which IC50 did it give?
Answer: 80.2 µM

Question: And the IC90?
Answer: > 100 µM

Question: How did the IC50 turn out when `CCOC1OC(=O)C(Cl)=C1Nc1ccccc1C` (stereo not given) was run?
Answer: 3.39 µM

Question: And the IC90?
Answer: 7.24 µM

Question: Which results are given for `O=C(C[C@@H]1C/C=C\C[C@H](NC(=O)OCC2c3ccccc3-c3ccccc32)C(=O)OC[C@H]2CCCN2C1=O)N[C@@H](CO)Cc1ccccc1`?
Answer: IC50: 27.3 µM; IC90: 37.2 µM
